Measurements: a melting point compilation (Tetko et al.)

SMILES | melting point [°C]
NNC(=O)c1ccc(Br)cc1Cl | 173 to 175
c1ccc2c(c1)ccc1nc3ccc4ccccc4c3cc12 | 216
CSc1nc(=O)n(C)c2c1CCC2 | 145 to 146
O=[N+]([O-])c1ccc(S(=O)(=O)Cl)cc1Cl | 38
CCOC(=O)c1cc2ccccc2oc1=S | 91
CCNc1nc(NC(C)C(C)C)nc(SC)n1 (stereo not drawn) | 65
OC1CCCCCCC1 | 25.1
NC(=O)N1c2ccccc2C=Cc2ccccc21 | 190
Cc1ccc(S(=O)(=O)N[C@H](c2ccccc2)[C@H](NS(=O)(=O)c2ccc(C)cc2)c2ccccc2)cc1 | 203 to 208
CC(CCC(=O)O)C1CCC2C3CCC4C(Br)C(=O)CCC4(C)C3CCC12C (stereo not drawn) | 190
CC(/C=C(C)/C=C/c1ccccc1)=NNS(=O)(=O)c1ccc(C)cc1 | 138 to 142
CC(=O)NC(=O)COC(=O)c1ccccc1 | 104
O=C(CO)[C@@H](O)[C@H](O)[C@@H](O)CO | 165
COc1cc(Br)cc(C=O)c1O | 129 to 131
Nc1nc(S)nc(S)n1 | 300
CCCCCCCCCCCCCC(CCCCCCCCCC)CCCCCCCCCC | 10.8
CNC(=O)OCc1cccc(COC(=O)NC)n1 | 136
O=[N+]([O-])c1ccc2c(O)c(-c3cccc(-c4[nH]c5cc([N+](=O)[O-])ccc5c4O)c3)[nH]c2c1 | 266
FCOC(C(F)(F)F)C(F)(F)F | < 25
O=C1CCc2cc3c(cc2N1)NCCC3 | 235
Clc1ccc(-c2c(Cl)cc(Cl)c(Cl)c2Cl)c(Cl)c1 | 73
N#Cc1ccc(C(c2ccc(C#N)cc2)n2cncn2)cc1 | 181
O=C(O)C=Cc1c(F)cccc1Cl | 163 to 165
CCCN(CCCl)c1c([N+](=O)[O-])cc(C(F)(F)F)cc1[N+](=O)[O-] | 42
NC(=O)C1=CNCCC1C(F)(F)F (stereo not drawn) | 184 to 187
BrC(Br)=C(Br)Br | 56.5

SMILES | melting point [°C]
COc1c(OC)c(OC(C)=O)c2cc(F)ccc2c1OC(C)=O | 102
CCCCCCNC(=S)NCCCCCC | 39 to 41
O=C(O)c1csc(-c2ccncc2)n1 | 304 to 307
COc1ccccc1C | -34.1
CC1=CP(=O)(c2ccccc2)CC1 (stereo not drawn) | 58 to 62
CSC(SC)=C(C(C)=O)C(C)=O | 61
CCCCCCCCCCCCCCCCCCOCC(O)CO (stereo not drawn) | 70.5
O=C(O)COc1nn(Cc2ccccc2)c2ccccc12 | 160
O=C(O)C[C@@H](NC(=O)OCC1c2ccccc2-c2ccccc21)c1ccc(Br)cc1 | 192
CC(=O)OC[C@@H](OC(C)=O)[C@@H](OC(C)=O)[C@H](OC(C)=O)[C@@H](OC(C)=O)C(=O)O | 109 to 111
Cc1ccc2oc(CCC(C)(O)c3ccccc3)c(-c3ccc(C)o3)c2c1 (stereo not drawn) | 85
CCOC(=O)C(=NNc1ccccc1[N+](=O)[O-])C(C)=O | 73 to 74
O=C=Nc1ccc(Cl)c(C(F)(F)F)c1 | 35 to 36
O=S(=O)(c1ccccc1)N1CCNCC1 | 111 to 112
CCC(=O)N(C)C | -45
O=[N+]([O-])c1cc(Cl)cnc1Cl | 38 to 42
CC(=O)CS(=O)(=O)c1ccccc1 | 55 to 59
COc1ccc(OC)c(C=CC(=O)n2cnc3c(N)ncnc32)c1 | 260 to 262
C#CCCCCCCC | -50
FC(Cl)C(Cl)(Cl)Cl (stereo not drawn) | -95.3
CCc1c(C)nc(N)nc1Cl | 213 to 214
COC(=O)CCC(C)C1CCC2C3C(O)C(O)C4CC(O)CCC4(C)C3CC(O)C12C (stereo not drawn) | 162
C[C@@H](NC(=O)c1ccccc1)c1ccccc1 | 123 to 125
CC(C)(C)N(NC(=O)c1ccccc1)C(=O)c1cccc(C(F)(F)F)c1 | 204
CC(C)(C)OC(=O)NCC1CCN(Cc2ccccc2)CC1 | 102 to 103
Nc1nnc(-c2ccccc2)c(Nc2ccc(I)cc2)n1 | 389

SMILES | melting point [°C]
CC(=O)c1ccc2c(c1)NC(=O)CO2 | 196
Cc1cc(OC(=O)C(F)(F)F)c(C)cc1OC(=O)C(F)(F)F | 89
O=[N+]([O-])CCO | -80
Nc1ccc(Cc2ccccc2)cc1 | 37
Cc1cc2c(nn1)CCc1nonc1-2 | 143 to 145
COc1ccc(P2(=S)Nn3c(nnc3C(F)(F)F)S2)cc1 (stereo not drawn) | 211
CC1(O)Cc2ccccc21 (stereo not drawn) | 78
C1CC2CCC1C2 | 87.5
COc1nc(C)nc(NC(=O)NS(=O)(=O)c2ccccc2OCCCl)n1 | 189
C1CC2CC1C1OC21 (stereo not drawn) | 123
CC1(C)C2CCC1(C)C(NC(=O)c1ccc([N+](=O)[O-])cc1)C2NC(=O)c1ccc([N+](=O)[O-])cc1 (stereo not drawn) | 170
CC1(C)CC(=O)c2cc(-c3ccccc3)n(-c3ccc(F)cc3)c2C1 | 208 to 210
Nc1c(I)cc([N+](=O)[O-])cc1I | 251 to 256
c1ccc(OCc2ccc(CCN3CCOCC3)cc2)cc1 | 86
O=C1CC=CCC(=O)CC=CC1 | 184
C=Cc1ccccc1C(=O)O | 94
CC(N)(Cc1ccc(O)cc1)C(=O)O (stereo not drawn) | 312
C=C(C)C=C(C)C | -114
NC(=O)NC1NC(=O)NC1=O (stereo not drawn) | 238
CCS(N)(=O)=O | 60
O=[N+]([O-])c1cccc2c1cnn2C1CC(O)C(CO)O1 (stereo not drawn) | 140
Nc1c(Br)cc(F)cc1Br | 65
CC(c1ccccc1)C(NC(=O)OC(C)(C)C)C(=O)O (stereo not drawn) | 100 to 105
O=C(CCl)N1CCOCC1 | 37
Cc1ccc(Sc2ccc(C(=O)c3ccccc3)cc2)cc1 | 73 to 87
Cc1c(N)cccc1C(=O)O | 187

SMILES | melting point [°C]
CCOC(=O)c1sc(SC)c2c1CCCC2O (stereo not drawn) | 119 to 122
O=S(=O)(Cl)c1ccc(Oc2ccccc2Cl)cc1 | 89 to 90
COC(=O)c1ccc(N2CCCCC2)nc1 | 70 to 72
Cc1ccccc1NC(=O)c1cnc(C(C)(C)C)cn1 | 81
Cc1nc(-c2cccc(S(=O)(=O)Cl)c2)cs1 | 116 to 118
CC(C=O)=CN | 101 to 103
Oc1ccc(C2=Cc3ccccc3C(c3ccccc3)O2)cc1 (stereo not drawn) | 121
O=C(O)c1ccc(C(F)(F)F)cc1C(=O)O | 151
CCCCCCCCCCCC1=C(O)C(=O)C=C(O)C1=O | 142
Cc1ccc(C)c2c1C(=O)N(C)C2O (stereo not drawn) | 163
CC(=O)c1c2c(c(C(C)=O)c3c1CCCN3)NCCC2 | 143
CC(C)(C)c1cc(C(=O)O)n(Cc2ccccc2)n1 | 126
O=C1c2ccccc2C(=O)C1c1ccc2ccccc2n1 | 241
Cc1ccc2cc(F)ccc2n1 | 54
COC(=O)c1c2c(c(C)c3c1CC3=O)C(=O)C2 | 168
Nc1ccc(Br)c(F)c1 | 68
Cc1cccc2c1CCCC2 | -23
CC(C)(C)OC[C@H](NC(=O)OCC1c2ccccc2-c2ccccc21)C(=O)O | 127 to 131
CC(C)(C)OC(=O)n1cc(CBr)c2ccccc21 | 106
NC(=O)/C(=C\c1ccccc1O)c1nc2ccccc2s1 | 210
COc1ccccc1NC(=S)NN | 151 to 153
Cc1ncoc1C(=O)O | 239 to 240
CCCCCCCCCCCCCC=CC(O)C(CO)NC(=O)CCCCCCCCCCCCCCC (stereo not drawn) | 94 to 95
CC(C)c1ccc(C=CC(=O)O)cc1 | 157 to 161
O=[N+]([O-])c1ccc(Br)cc1C(F)(F)F | 34
Nc1ccc([N+](=O)[O-])c(Cl)c1 | 159

SMILES | melting point [°C]
CC(Cc1ccccc1)NCCC(c1ccccc1)c1ccccc1 (stereo not drawn) | 38
CC1(C)OC(=O)C(=C2CCCCCN2)C(=O)O1 | 147 to 149
CCCSc1ncccc1C(=O)Cl | 43.4
O=C1C=C(NCc2cccc(Cl)c2)C(=O)c2ccccc21 | 191
O=C(O)C(C(F)(F)F)C(F)(F)F | 52
c1ccc(N2CSc3nnc(-c4cccnc4)n3C2)nc1 | 278 to 280
OCc1ccc(-c2ccco2)s1 | 56 to 57
CCOC(=O)C1=C(C)N(C)C(=S)NC1c1ccccc1 (stereo not drawn) | 147
ON=C1C2CC3CC(C2)CC1C3 | 150 to 151
C=CCN=C(NCC=C)c1cc(C(C)(C)C)c(O)c(C(C)(C)C)c1 | 201 to 202
CC(=O)Nc1ccc(C(C)=O)c(C)c1 | 139
O=C(O)c1ccc(OC2CCOCC2)cc1 | 185 to 186
Cc1cc(C(=O)O)cc(Cl)n1 | 193
c1csc(SSc2cccs2)c1 | 55
CCCC(=O)C(=O)O | 6.5
c1cnc(-c2noc(C3CCNCC3)n2)cn1 | 87 to 89
CCOC(=O)C1=NN(c2ccc([N+](=O)[O-])cc2)C2(C)CC3(c4ccccc4)N(c4ccc([N+](=O)[O-])cc4)N=C(C(=O)OCC)N3c3ccccc3N12 (stereo not drawn) | 237 to 239
CCCC(O)C=CC=CC=CC#CC#CCCCO (stereo not drawn) | 54
S=c1nnc(-c2ccccc2)c(Nc2ccccc2Cl)[nH]1 | 314
Cc1cc(=O)oc2cc(O)c(Cl)cc12 | 278 to 280
CC(C)=C1C(=O)NN(c2ccccc2)C1=O | 166
Cc1[nH]nc(C(F)(F)C(F)(F)C(F)(F)F)c1[N+](=O)[O-] | 97 to 98
CC1(C)C(C(=O)OC(C#N)c2cccc(Oc3ccccc3)c2)C1C(Br)C(Br)(Br)Br (stereo not drawn) | 143
O=C(c1ccc(F)cc1)C1CC1 | -15
